Laboratory results from patent US8367710B2, “Bicyclo-substituted pyrazolon azo derivatives, preparation process and pharmaceutical use thereof” (Jiangsu Hengrui Medicine Co. Ltd., priority 2008, dated 2013).

Tests used:
[1] = target: T1, human TPO receptor (Homo sapiens, UniProt P40238); assay: pro-proliferation effect on BAF3-TPOR cell (CCK-8); format: cell-based, mouse; details: BAF3-TPOR cells, proliferation relative to rhTPO positive control
T1 sequence (P40238 26-635): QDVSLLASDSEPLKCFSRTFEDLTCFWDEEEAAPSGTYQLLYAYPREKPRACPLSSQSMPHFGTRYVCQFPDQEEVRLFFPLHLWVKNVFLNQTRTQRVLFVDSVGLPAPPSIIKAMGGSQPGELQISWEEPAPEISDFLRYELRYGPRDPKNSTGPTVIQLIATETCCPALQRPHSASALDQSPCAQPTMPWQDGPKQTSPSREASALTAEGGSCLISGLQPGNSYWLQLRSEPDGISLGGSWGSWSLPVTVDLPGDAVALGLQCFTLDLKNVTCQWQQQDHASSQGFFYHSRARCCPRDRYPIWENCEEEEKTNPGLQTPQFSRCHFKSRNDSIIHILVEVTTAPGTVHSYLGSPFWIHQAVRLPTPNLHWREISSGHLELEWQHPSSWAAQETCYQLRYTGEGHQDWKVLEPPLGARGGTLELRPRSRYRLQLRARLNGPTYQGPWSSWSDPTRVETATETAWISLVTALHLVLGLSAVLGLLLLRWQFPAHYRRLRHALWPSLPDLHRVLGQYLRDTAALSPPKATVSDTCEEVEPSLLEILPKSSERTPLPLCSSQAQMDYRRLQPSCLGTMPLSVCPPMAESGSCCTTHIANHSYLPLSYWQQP
Protocol: The sequence of primers which contains multi-sites mutation was designed as follows: […]
The E. coli DH5α competent cell was transformed with mutated plasmid, and positive colonies were picked up through ampicillin selection.
(2) BAF3-TPOR stable transfected cell line: the following method was used to construct the BaF3 cell which stably over-expressed functional human TPO receptor. […] The stable transfected cells BAF3-TPOR were selected with G418 (Gibco, US), then incubated with RPMI1640 medium plus 10% FBS (Gibco, US), […] G418, 5 ng/mL, rmIL-3 (Chemicon, US).
(1) Washing cells by centrifugation: a suitable amount of cell suspension was centrifuged at 1000 rpm for 5 minutes, and the supernatant was discarded. 10 mL of cell culture media without containing IL-3 was added. Then the resulting cell suspension was centrifuged at 1000 rpm for 5 minutes, and the supernatant was discarded.
(2) 1 mL of cell culture media without containing IL-3 was added to beat upon them to equality, and the number of a suitable amount of cell suspension was counted after dilution.
(3) According to the result of the cell counting, a cell suspension in a concentration of 100,000 cell/mL was prepared.
(4) 100 μL of cell suspension was transferred to each well of 96-well culture plate, and there were 3 parallel wells, that is, there were a blank control group (B), a negative control group (N), a positive control group of TPO (P) and a test compound group (S).
(5) The test compound was dissolved in DMSO to prepare a 10 mM stock solution, and then the solution was diluted with RPMI 1640 medium into a series of test samples at different concentration: 30 μM, 10 μM, 3 μM, 1 μM, 0.3 μM, 0.1 μM, 0.03 μM, 0.01 μM, 0.003 μM, 0.001 μM.
(6) 10 μL of test compound solution was transferred to each well respectively; 1 μL of rhTPO (10 μg/mL) was added to positive control well.
(7) The plates were incubated in an incubator at 5% CO2 and 37° C. for 24 hours.
(9) OD value was detected at 450 nm by VICTOR3 (Perkin Elmer 1420-120) plate reader.
(1) The proliferation rate was calculated as follows: Rate=[(S−B)/(P−B)]*100%
S: OD value of wells which contains test compound.
B: OD value of blank control wells
P: OD value of positive control wells
(2) The EC50 value was calculated by Origin 7.0 software.

[2] = Pharmacokinetics assay in rats after intragastric administration; format: in vivo; details: both sexes, Sprague-Dawley, rat, plasma, po, SD rats, 5 mg/Kg; for Vd/F: read-out: Apparent Distribution Volume Vz/F; for CL/F: read-out: Clearance CL/F (converted); for AUC: read-out: Curve Area AUC; for half-life: read-out: Half-Life t½ (converted); for MRT: read-out: Mean Residence Time MRT; for Cmax: read-out: Plasma Conc. Cmax
Protocol: Test Example 1: Pharmacokinetics assay of the compounds of the present disclosure
The pharmacokinetics of the compounds of the present disclosure was studied and evaluated in rats.
The test compound was diluted with 1% sodium carboxymethyl cellulose to 0.5 mg/mL (calculated as the free acid form) of suspension before use.
24 healthy adult SD rats, male and female in half, were divided into […]. After an overnight fast, the rats were administered intragastrically at a dose of 5.0 mg/kg (calculated as the free acid form), at a volume of 10 mL/kg.
24 healthy adult SD rats, male and female in half, were administered intragastrically at a dose of 5.0 mg/kg after an overnight fast. Blood samples (0.2 mL) were taken from eye socket at pre administration and at 0.5, 1.0, 2.0, 3.0, 4.0, 5.0, 6.0, 8.0, 11.0, 14.0, 24.0, 36.0 and 48.0 hours post administration, which were stored in heparinized tubes and centrifuged for 10 minutes at 3,500 rpm. The plasma samples were stored at −20° C. until analysis.
50 μL of rat plasma, obtained at various time points after administration, 20 μL of internal standard solution and 20 μL of a solvent mixture of methanol and water (80:20, v/v) were mixed well, and then 150 μL of methanol was added to result in protein precipitation. Then the mixture was mixed for 1 minute using a vortexer and centrifuged for 10 minutes at 13,000 rpm. 20 μL of the supernatant was analyzed by LC/MS/MS.
50 μL of blank plasma was spiked with a series of standard solutions to produce final concentrations of 1.0, 5.0, 25.0, 50.0, 100.0, 250.0, 500.0 ng/mL, followed by addition of 20 μL of internal standard solution, which was treated according to plasma sample pretreatment protocol. A typical calibration curve equation was obtained with plasma concentration as the abscissa and the chromatographic peak area ratio of sample to internal standard as the ordinate, using weighted least squares method (w=1/x^2) for linear regression.
The compartmental model of pharmacokinetics was fitted for the test compounds and the major pharmacokinetic parameters were calculated in which Cmax and tmax were the actually measured values.

CC1=NN(c2ccc(C)c(C)c2)C(=O)/C1=N\Nc1cccc(-c2cccc(C(=O)O)c2)c1O [Eltrombopag, eltrombopag, reference compound]
EC50 [1]: 299 nM | Vd/F [2]: 1.53 ± 0.26 L/kg | CL/F [2]: 3 mL/min/kg | AUC [2]: 29000 ± 3820 ng·h/mL | half-life [2]: 6.11 ± 1.04 h | MRT [2]: 4.63 ± 1.03 h | Cmax [2]: 8470 ± 950 ng/mL

CC1=NN(c2ccc3c(c2)CCC3)C(=O)/C1=N\Nc1cc(C)cc(-c2cccc(C(=O)O)c2)c1O [Example 29, 2′-Hydroxy-3′-[N′-(1-indan-5-yl-3-methyl-5-oxo-1,5-dihydro-pyrazol-4-ylidene)-hydrazino]-5′-methyl-biphenyl-3-carboxylic acid]
EC50 [1]: 124 nM | Vd/F [2]: 0.77 ± 0.39 L/kg | CL/F [2]: 2.33 mL/min/kg | AUC [2]: 44800 ± 19400 ng·h/mL | half-life [2]: 4.01 ± 0.63 h | MRT [2]: 4.29 ± 0.8 h | Cmax [2]: 13000 ± 5960 ng/mL

CC1=NN(c2ccc3c(c2)CC3)C(=O)/C1=N\Nc1cccc(-c2cccc(C(=O)O)c2)c1O [Example 5, 3′-[N′-(1-Bicyclo[4.2.0]octa-1(6),2,4-trien-3-yl-3-methyl-5-oxo-1,5-dihydro-pyrazol-4-ylidene)-hydrazino]-2′-hydroxy-biphenyl-3-carboxylic acid]
EC50 [1]: 354 nM

CC1=NN(c2ccc3c(c2)C(C)(C)CC3)C(=O)/C1=N\Nc1cc(C)cc(-c2cccc(C(=O)O)c2)c1O [Example 16, 3′-{N′-[1-(3,3-Dimethyl-indan-5-yl)-3-methyl-5-oxo-1,5-dihydro-pyrazol-4-ylidene]-hydrazino}-2′-hydroxy-5′-methyl-biphenyl-3-carboxylic acid]
EC50 [1]: 160 nM

CC1=NN(c2ccc3c(c2)CC3)C(=O)/C1=N\Nc1cccc(-c2ccc(C(=O)O)s2)c1O [Example 37, 5-{3-[N′-(1-Bicyclo[4.2.0]octa-1(6),2,4-trien-3-yl-3-methyl-5-oxo-1,5-dihydro-pyrazol-4-ylidene)-hydrazino]-2-hydroxy-phenyl}-thiophene-2-carboxylic acid]
EC50 [1]: 90 nM

CC1=NN(c2ccc3c(c2)C(C)(C)CC3(C)C)C(=O)/C1=N\Nc1cccc(-c2ccc(C(=O)O)o2)c1O [Example 25, 5-(2-Hydroxy-3-{N′-[3-methyl-5-oxo-1-(1,1,3,3-tetramethyl-indan-5-yl)-1,5-dihydro-pyrazol-4-ylidene]-hydrazino}-phenyl)-furan-2-carboxylic acid]
EC50 [1]: 60 nM

CC1=NN(c2ccc3c(c2)CCCC3)C(=O)/C1=N\Nc1cccc(-c2cccc(C(=O)O)c2)c1O [Example 3, 2′-Hydroxy-3′-{N′-[3-methyl-5-oxo-1-(5,6,7,8-tetrahydro-naphthalen-2-yl)-1,5-dihydro-pyrazol-4-ylidene]-hydrazino}-biphenyl-3-carboxylic acid]
EC50 [1]: 310 nM

CC1=NN(c2ccc3c(c2)CCCC3)C(=O)/C1=N\Nc1cc(C)cc(-c2ccc(C(=O)O)o2)c1O [Example 50, 5-(2-Hydroxy-5-methyl-3-{N′-[3-methyl-5-oxo-1-(5,6,7,8-tetrahydro-naphthalen-2-yl)-1,5-dihydro-pyrazol-4-ylidene]-hydrazino}-phenyl)-furan-2-carboxylic acid]
EC50 [1]: 126 nM

CC1=NN(c2ccc3c(c2)CCC3)C(=O)/C1=N\Nc1cc(C)cc(-c2ccc(C(=O)O)o2)c1O [Example 46, 5-{2-Hydroxy-3-[N′-(1-indan-5-yl-3-methyl-5-oxo-1,5-dihydro-pyrazol-4-ylidene)-hydrazino]-5-methyl-phenyl}-furan-2-carboxylic acid]
EC50 [1]: 56 nM
